Measurements from US12239629B2 (priority 2020, dated 2025).
≈ marks a conversion by molar mass, not a printed value. Where a name gives a salt, the structure may show the parent alone. Read-outs that look alike come from different tables or passages of the source.

Experiments:
SARS-CoV2 [1] = test: Drug pretreatment of Vero E6 cells prior to SARS-CoV2 infection, indirect immunofluorescence; type: cell-based
Procedure: (§1) In carrying out the in vitro experiments, vero E6 cells (an African green monkey kidney cell line) were infected with SARS-CoV2 at a multiplicity of infection of 0.5 for 1 hour. The cells were washed with PBS and then incubated in OPTI-MEM (Invitrogen) medium with or without various concentrations of the following drug candidates: Artemether (from BiopharmaRx) Hydroxychloroquine (from Sigma Aldrich), Atazanavir (from Sigma Aldrich), and Efavirenz (from Sigma Aldrich), Fosamprenavir Calcium (from Sigma Aldrich), Saquinavir (from Sigma Aldrich) and Remdesivir (from AOBIOUS, INC., USA)
(§2) Immunofluorescence staining was performed with SARS-CoV2-specific hyperimmune mouse ascitic fluid (HMAF) followed by anti-mouse fluorescein-coupled antibody.
Experiments were carried out to determine the impact of artemether treatment on SARS-CoV2 infection. Permissive Vero E6 cells were pre-treated with various concentrations of artemether (0.1-50 μM) for 18-24 hours prior to virus infection. Cells were then infected with SARS-CoV2, and virus antigens were visualized by indirect immunofluorescence. For quantitative purposes, we counted the number of cells stained positive from three random locations on a slide. The average number of positively stained control cells was scored as 100% and was compared with the number of positive cells observed under various artemether concentrations. Pretreatment with 0.1, 1, 10, 20, 30, 40 and 50 μM artemether reduced infectivity by 4%, 12%, 32%, 45%, 63%, 92% and 100% respectively. Reproducible results were obtained from three independent experiments.

SARS-CoV2 [2] = test: Drug added to Vero E6 cells immediately after SARS-CoV2 adsorption, indirect immunofluorescence after 24 hours; type: cell-based; settings: for inhibition: added after the initiation of infection
Procedure: as §1, §2
The antiviral properties of artemether on SARS-CoV2 after the initiation of infection were studied. Vero E6 cells were infected with the virus and fresh medium supplemented with various concentrations of artemether was added immediately after virus adsorption. Infected cells were incubated for an additional 24 hours, after which the presence of virus antigens was analyzed by indirect immunofluorescence analysis. When artemether was added after the initiation of infection, there was a dramatic dose dependent decrease in the number of virus antigen-positive cells. […] A half-maximal inhibitory effect was estimated to occur at 16.5±1.0 μM artemether. […] (FIG. 2).

[3] = Dissolution test of Artemether/Lumefantrine-Remdesivir soft gel capsule; type: physicochemical; settings: 0.1 N. HCl with 3% Benzalkonium Chloride
From the text: The soft gel capsule of Artemether and Lumefantrine is comprised: Artemether 4 to 5% w/w, Lumefantrine 20-24% w/w, Remdesivir 18-20%, non-aqueous vehicle 15-20% w/w, preservative less than 1% w/w, viscosity imparting agent 15-20% w/w, suspending agent 1 to 5% w/w and emulsifying agent 1 to 3% w/w and a process to manufacture the said preparation comprising of the following steps as given in the above Patent. • (a) Preservatives and Solid Suspending Agents were milled and sifted. • (b) Non-aqueous vehicle, viscosity imparting agent and liquid suspending agents were filtered to remove the foreign particles • (c) Additional steps for mixing preservatives and suspending agents: • (i) Preservatives were dissolved in non-aqueous vehicle; • (ii) Emulsifying agents were warmed and/or melted and added into mixture in (i) above; • (iii) Viscosity imparting agent is added to mixture of (ii) above and the resultant mixture is stirred. • (iv) Suspending agent is added and mixed with the mixture in (iii) above; and • (v) The mixture of (a) above and (c) (iv) above was homogenized. • (d) The mixture in (v) above was the encapsulated in soft gelatin.
Drug dissolution testing is routinely used to provide critical in vitro drug release information for both quality control purposes to predict in vivo drug release profiles.
The media for dissolution test was 0.1 N. HCl with 3% Benzalkonium Chloride.

[4] = Peak Inhibitory Concentration (Threshold) after oral administration
Procedure: It is noted that the Peak Inhibitory Concentration (Threshold) of Artemether and Remdesivir were at 120 minutes after oral administration. The Peak Inhibitory Concentration (Threshold) of Lumefantrine was at 60 minutes after oral administration.

severe COVID-19 = settings: cited from earlier work
COVID-19 = settings: preliminary results, cited from earlier work
[5] = cited from earlier work
SARS-CoV2 [6] = test: In-vitro experiments, time of drug addition relative to infection; type: cell-based; settings: added between 3 hours pre-infection and 3 hours after infection
Procedure: Less inhibition was detected when the drug was added after 12 hours post-infection (Our observation was consistent with the report by Agostini et al regarding GS-5734 (remdesivir) (Agostini M L, Andres E L, Sims A C, Graham R L, Sheahan T P, Lu X, Smith E C, Case J B, Feng J Y, Jordan R, Ray AS, Cihlar T, Siegel D, Mackman R L, Clarke M O, Baric R S, Denison M R. 2018. Coronavirus susceptibility to the antiviral remdesivir (GS-5734) is mediated by the viral polymerase and the proofreading exoribonuclease. mBio 9:e00221-18. https://doi.org/10.1128/mBio.00221-18.).
as §1

[7] = pretreatment 18-24 hours prior to virus infection, 0.1 μM
[8] = pretreatment 18-24 hours prior to virus infection, 1 μM
[9] = pretreatment 18-24 hours prior to virus infection, 10 μM
[10] = pretreatment 18-24 hours prior to virus infection, 20 μM
[11] = pretreatment prior to virus infection, 5 μM
[12] = pretreatment prior to virus infection, 15 μM
[13] = pretreatment prior to virus infection, 25 μM
[14] = Severe acute respiratory syndrome coronavirus 2, Vero C1008, drug added after the initiation of infection, Vero E6 cells, read-out: concentration that reduced the infection by 50%
[15] = Severe acute respiratory syndrome coronavirus 2, Vero C1008, drug added immediately after virus adsorption, Vero E6 cells, estimated, read-out: half-maximal inhibitory effect
[16] = pretreatment 18-24 hours prior to virus infection, 30 μM
[17] = pretreatment 18-24 hours prior to virus infection, 40 μM
[18] = pretreatment 18-24 hours prior to virus infection, 50 μM
[19] = Severe acute respiratory syndrome coronavirus 2, Vero C1008, read-out: half-maximal inhibitory effect, drug added immediately after virus adsorption, Vero E6 cells, estimated

SMILES | reduced infectivity (SARS-CoV2 [1]; [7]) | reduced infectivity (SARS-CoV2 [1]; [8]) | reduced infectivity (SARS-CoV2 [1]; [9]) | reduced infectivity (SARS-CoV2 [1]; [10]) | IC50 (SARS-CoV2 [2]; [14]) | IC50 (SARS-CoV2 [2]; [15]) | reduced infectivity (SARS-CoV2 [1]; [16]) | reduced infectivity (SARS-CoV2 [1]; [17]) | reduced infectivity (SARS-CoV2 [1]; [18]) | IC50 (SARS-CoV2 [2]; [19]) | also measured
CCC(CC)COC(=O)[C@H](C)N[P@](=O)(OC[C@H]1O[C@@](C#N)(c2ccc3c(N)ncnn23)[C@H](O)[C@@H]1O)Oc1ccccc1 [Remdesivir, 2-ethylbutyl (2S)-2-[[[(2R,3S,4R,5R)-5-(4-aminopyrrolo[2,1-f][1,2,4]triazin-7-yl)-5-cyano-3,4-dihydroxyoxolan-2-yl]methoxy-phenoxyphosphoryl]amino]propanoate] | 7% | 21% | 63% | 96% | ~2.4 µM | 2.4 ± 1 µM |  |  |  |  | reduced infectivity (SARS-CoV2 [1]; [11]): 42%; reduced infectivity (SARS-CoV2 [1]; [12]): 84%; reduced infectivity (SARS-CoV2 [1]; [13]): 100%; inhibition (SARS-CoV2 [2]; 5-50 μM concentrations): 68%-96%; % Cumulative Drug Release ([3]; 60 minute time frame): 91.7%; % of Drug Release in a Dissolution Test ([3]; sample time 30 minute): 52.6%; % of Drug Release in a Dissolution Test ([3]; sample time 60 minute): 73.4%; % of Drug Release in a Dissolution Test ([3]; sample time 90 minute): 85.8%; % of Drug Release in a Dissolution Test ([3]; sample time 120 minute): 92.6%; time of Peak Inhibitory Concentration (Threshold) [4]: 120 min; stopped early because of adverse events (severe COVID-19; adult patients admitted to hospital for severe COVID-19, 237 enrolled): 18 patients; clinical benefits (severe COVID-19; adult patients admitted to hospital for severe COVID-19): not associated with statistically significant clinical benefits; stopped early because of adverse events (severe COVID-19; share of patients, adult patients with severe COVID-19): 12%; faster time to recovery than placebo (COVID-19; 1063 patients, p<0.001): 31%; median time to recovery (COVID-19; 1063 patients): 11 days; mortality rate (COVID-19; p=0.059 vs placebo): 8.0%; solubility in water [5]: 330 µg/mL (≈ 548 µM); solubility in water (words) [5]: sparingly soluble
COC(=O)N[C@H](C(=O)N[C@@H](Cc1ccccc1)[C@@H](O)CN(Cc1ccc(-c2ccccn2)cc1)NC(=O)[C@@H](NC(=O)OC)C(C)(C)C)C(C)(C)C [atazanavir sulfate] | 5% | 15% | 46% | 92% | ~11 µM | 11.5 ± 1 µM |  |  |  |  | reduced infectivity (SARS-CoV2 [1]; [11]): 28%; reduced infectivity (SARS-CoV2 [1]; [12]): 78%; reduced infectivity (SARS-CoV2 [1]; [13]): 100%; inhibition (SARS-CoV2 [2]; 40-100 μM concentrations): 86%-96%
COC(=O)NC(C(=O)NN(Cc1ccc(-c2ccccn2)cc1)C[C@H](O)[C@H](Cc1ccccc1)NC(=O)[C@@H](NC(=O)OC)C(C)(C)C)C(C)(C)C (stereo partly drawn) [Atazanavir, methyl N-[(1S)-1-{N′-[(2S,3S)-2-hydroxy-3-[(2S)-2-[(methoxycarbonyl)amino]-3,3-dimethylbutanamido]-4-phenylbutyl]-N′-{[4-(pyridin-yl)phenyl]methyl} hydrazinecarbonyl}-2.2-dimethylpropyl]carbamate] |  |  |  |  |  |  |  |  |  |  | inhibition by time of addition (SARS-CoV2 [6]): maximal inhibition
CCN(CCO)CCCC(C)Nc1ccnc2cc(Cl)ccc12 (centres unmarked) [hydroxychloroquine sulfate] | 6% | 18% | 47% | 63% |  | 7.5 ± 1 µM | 81% | 92% | 100% |  | inhibition (SARS-CoV2 [2]; 40-100 μM concentrations): 75-96%; reduced the infection (SARS-CoV2 [2]; approximately 10 μM added immediately after virus adsorption, 24 hours): 63%
C[C@H]1O[C@@H](O[C@H]2[C@@H](O)C[C@H](O[C@H]3[C@@H](O)C[C@H](O[C@H]4CC[C@@]5(C)[C@H](CC[C@@H]6[C@@H]5C[C@@H](O)[C@]5(C)[C@@H](C7=CC(=O)OC7)CC[C@]65O)C4)O[C@@H]3C)O[C@@H]2C)C[C@H](O)[C@@H]1O [digoxin, 3-[(3S,5R,8R,9S, 10S, 12R, 13S, 14S, 17R)-3-[(2R,4S,5S,6R)-5-[(2S,4S,5S,6R)-5-[(2S,4S,5S,6R)-4,5-dihydroxy-6-methyloxan-2-yl]oxy-4-hydroxy-6-methyloxan-2-yl]oxy-4-hydroxy-6-methyloxan-2-yl]oxy-12,14-dihydroxy-10, 13-dimethyl-1,2,3,4,5,6,7,8,9, 11, 12, 15, 16, 17-tetradecahydrocyclopenta[a]phenanthren-17-yl]-2H-furan-5-one] |  |  |  |  | ~0.17 µM |  |  |  |  | 0.17 ± 0.05 µM | inhibition (SARS-CoV2 [2]; 0.20-0.50 μM concentrations): 73%-97%
CCCCN(CCCC)CC(O)c1cc(Cl)cc2c1-c1ccc(Cl)cc1/C2=C/c1ccc(Cl)cc1 (centres unmarked) [Lumefantrine] |  |  |  |  |  |  |  |  |  |  | time of Peak Inhibitory Concentration (Threshold) [4]: 60 min; solubility in water (words) [5]: insoluble
CC(C)CN(C[C@H](OP(=O)(O)O)[C@H](Cc1ccccc1)NC(=O)O[C@H]1CCOC1)S(=O)(=O)c1ccc(N)cc1 [fosamprenavir calcium, Fosamprenavir Calcium] | 3% | 10% | 28% | 55% | ~58 µM | 58 ± 1 µM | 73% | 91% | 100% |  | inhibition (SARS-CoV2 [2]; 80-200 μM concentrations): 75%-96%; IC50 (SARS-CoV2 [2]; read-out: concentration that reduced the infection by 50%, drug added after the initiation of infection, Vero E6 cells): ~95 µM
O=C1Nc2ccc(Cl)cc2[C@@](C#CC2CC2)(C(F)(F)F)O1 [efavirenz, Efavirenz] | 3% | 9% | 25% | 48% |  |  | 73% | 89% | 100% | 51 ± 1 µM | inhibition (SARS-CoV2 [2]; 80-200 μM concentrations): 73%-96%; IC50 (SARS-CoV2 [2]; Severe acute respiratory syndrome coronavirus 2, Vero C1008, read-out: concentration that reduced the infection by 50%, drug added after the initiation of infection, Vero E6 cells): ~55 µM
CC(C)(C)NC(=O)[C@@H]1C[C@@H]2CCCC[C@@H]2CN1C[C@@H](O)[C@H](Cc1ccccc1)NC(=O)[C@H](CC(N)=O)NC(=O)c1ccc2ccccc2n1 [saquinavir, Saquinavir] |  | 5% | 16% | 35% |  |  |  | 47% |  | 96 ± 1 µM | reduced infectivity (SARS-CoV2 [1]; pretreatment 18-24 hours prior to virus infection, 60 μM): 78%; reduced infectivity (SARS-CoV2 [1]; pretreatment 18-24 hours prior to virus infection, 80 μM): 85%; reduced infectivity (SARS-CoV2 [1]; pretreatment 18-24 hours prior to virus infection, 100 μM): 100%; inhibition (SARS-CoV2 [2]; 120-240 μM concentrations): 63%-96%
